# Experimental data as given in US12509460B2 (Skyhawk Therapeutics, Inc., priority 2019, dated 2025).
# Like-named read-outs stand apart in the source and are kept apart here.
# Assays:
# [1] = test system: mHTT protein in GM04724 (CAG 70/20) Huntington's disease patient lymphoblast cells; experiment: mHTT protein assay, 2B7-MW1 assay via Mesoscale Discovery (MSD); assay type: cell-based, human
# Outline: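 Signal from the 2B7-MW1 antibody pair on MSD, rising with polyQ length and smaller HTT fragments, measured mHTT after 48 h compound exposure (0.6 nM–10 μM) in GM04724 cells. A parallel replicate plate gave CellTiter Glo viability.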
# [2] = test system: SMN protein in spinal muscular atrophy (SMA) patient fibroblasts (GM03813, Coriell); experiment: SMN protein assay, Mesoscale Discovery (MSD); assay type: cell-based, human; conditions: for EC50: read-out: SMN2 protein EC50
# Outline: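 Absolute SMN levels were quantified by MSD against an SMN protein standard curve (1 μg/ml to 19.5 pg/ml) run on each plate. Samples were lysates of GM03813 patient fibroblasts (7000 cells/well) treated 48 hours with compound doses from 2.5 μM down to 0.6 nM.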
# [3] = test system: MDR1-MDCK cell monolayers; conditions: dog, MDCK-MDR1, 120 min, 5 μM, pH 7.4
# MDR1 (P-gp) = experiment: in vitro; conditions: dog, MDCK-MDR1, pH 7.4
# MDR1 = experiment: in vitro; conditions: dog, MDCK-MDR1, pH 7.4
# [4] = GM04724 Huntington's disease patient lymphoblasts
# [5] = SMA patient fibroblasts GM03813, 48 hours, MSD
# [6] = GM04724 (CAG 70/20) Huntington's disease patient lymphoblasts
# [7] = SMA patient fibroblasts (GM03813), 48 hours
structure (smiles),measurement,setting,value
"CN(c1ccc(-c2cc3cc[nH]c(=O)c3s2)nn1)[C@@H]1C[C@H]2CC[C@H](N2)[C@@H]1F (single isomer, unassigned) [Compound 66A]",mHTT protein EC50,[1]; [4],E (501 ≤ E ≤ 10.000)
same,SMN2 protein EC50,[2]; [5],E (501 ≤ E ≤ 10.000)
same,MDCK-MDR1: % Recov A-B,[3],93%
same,MDCK-MDR1: % Recov B-A,[3],100%
same,"Papp A→B at 120 min, 5 μM",MDR1 (P-gp),0.09 ×10⁻⁶ cm/s
same,"Papp B→A at 120 min, 5 μM",MDR1 (P-gp),4.4 ×10⁻⁶ cm/s
same,"efflux ratio at 120 min, 5 μM",MDR1,51
"CN1[C@@H]2CC[C@H]1[C@H](F)[C@H](N(c1ccc(-c3cc4oc(C(=O)N5CCC5)cc4cc3O)nn1)C1CC1)C2 (single isomer, unassigned) [Compound 92A]",mHTT protein EC50,[1]; [4],E (501 ≤ E ≤ 10.000)
same,SMN2 protein EC50,[2]; [5],E (501 ≤ E ≤ 10.000)
same,MDCK-MDR1: % Recov A-B,[3],93%
same,MDCK-MDR1: % Recov B-A,[3],88%
same,"Papp A→B at 120 min, 5 μM",MDR1 (P-gp),1.23 ×10⁻⁶ cm/s
same,"Papp B→A at 120 min, 5 μM",MDR1 (P-gp),57.8 ×10⁻⁶ cm/s
same,"efflux ratio at 120 min, 5 μM",MDR1,47
"CN(C)C(=O)c1cc(O)c(-c2ccc(N(C)[C@H]3C[C@@H]4CC[C@H]([C@H]3F)N4C)nn2)cc1F (single isomer, unassigned) [Compound 104B]",mHTT protein EC50,[1]; [6],E (501 ≤ E ≤ 10.000)
same,SMN2 protein EC50,[2]; [7],E (501 ≤ E ≤ 10.000)
same,MDCK-MDR1: % Recov A-B,[3],99%
same,MDCK-MDR1: % Recov B-A,[3],105%
same,"Papp A→B at 120 min, 5 μM",MDR1 (P-gp),0.89 ×10⁻⁶ cm/s
same,"Papp B→A at 120 min, 5 μM",MDR1 (P-gp),50.2 ×10⁻⁶ cm/s
same,"efflux ratio at 120 min, 5 μM",MDR1,56
"CN(c1ccc(-c2ccc(Oc3cnn(C)c3)cc2O)nn1)[C@H]1C[C@@H]2CC[C@@H](N2)[C@H]1F (single isomer, unassigned) [Compound 91B]",mHTT protein EC50,[1]; [4],E (501 ≤ E ≤ 10.000)
same,SMN2 protein EC50,[2]; [5],E (501 ≤ E ≤ 10.000)
same,MDCK-MDR1: % Recov A-B,[3],106%
same,MDCK-MDR1: % Recov B-A,[3],102%
same,"Papp A→B at 120 min, 5 μM",MDR1 (P-gp),3.94 ×10⁻⁶ cm/s
same,"Papp B→A at 120 min, 5 μM",MDR1 (P-gp),73.3 ×10⁻⁶ cm/s
same,"efflux ratio at 120 min, 5 μM",MDR1,19
"CN(c1ccc(-c2ccc(Oc3nccn3C)cc2O)nn1)[C@H]1C[C@@H]2CC[C@@H](N2)[C@H]1F (single isomer, unassigned) [Compound 123B]",mHTT protein EC50,[1]; [6],E (501 ≤ E ≤ 10.000)
same,EC50,[2]; [7],101 to 500 nM
same,MDCK-MDR1: % Recov A-B,[3],92%
same,MDCK-MDR1: % Recov B-A,[3],102%
same,"Papp A→B at 120 min, 5 μM",MDR1 (P-gp),0.66 ×10⁻⁶ cm/s
same,"Papp B→A at 120 min, 5 μM",MDR1 (P-gp),58.7 ×10⁻⁶ cm/s
same,"efflux ratio at 120 min, 5 μM",MDR1,89
"CN(c1ccc(-c2cc3occc(=O)c3cc2O)nn1)[C@@H]1C[C@H]2CC[C@@H]([C@@H]1F)N2C (single isomer, unassigned) [Compound 94A]",mHTT protein EC50,[1]; [4],E (501 ≤ E ≤ 10.000)
same,EC50,[2]; [5],101 to 500 nM
same,MDCK-MDR1: % Recov A-B,[3],68%
same,MDCK-MDR1: % Recov B-A,[3],71%
same,"Papp A→B at 120 min, 5 μM",MDR1 (P-gp),4.99 ×10⁻⁶ cm/s
same,"Papp B→A at 120 min, 5 μM",MDR1 (P-gp),33.9 ×10⁻⁶ cm/s
same,"efflux ratio at 120 min, 5 μM",MDR1,7
"CN(c1ccc(-c2cc3ncn(CC(F)(F)F)c(=O)c3cc2O)nn1)[C@@H]1C[C@H]2CC[C@@H]([C@@H]1F)N2C (single isomer, unassigned) [Compound 108A]",mHTT protein EC50,[1]; [6],E (501 ≤ E ≤ 10.000)
same,SMN2 protein EC50,[2]; [7],E (501 ≤ E ≤ 10.000)
same,MDCK-MDR1: % Recov A-B,[3],82%
same,MDCK-MDR1: % Recov B-A,[3],91%
same,"Papp A→B at 120 min, 5 μM",MDR1 (P-gp),1.51 ×10⁻⁶ cm/s
same,"Papp B→A at 120 min, 5 μM",MDR1 (P-gp),73.7 ×10⁻⁶ cm/s
same,"efflux ratio at 120 min, 5 μM",MDR1,49
"CC(=O)Nc1ccc(-c2ccc(N(C)[C@H]3C[C@@H]4CC[C@@H](N4)[C@H]3F)nn2)c(O)c1 (single isomer, unassigned) [Compound 32B]",mHTT protein EC50,[1]; [4],E (501 ≤ E ≤ 10.000)
same,SMN2 protein EC50,[2]; [5],E (501 ≤ E ≤ 10.000)
same,MDCK-MDR1: % Recov A-B,[3],95%
same,MDCK-MDR1: % Recov B-A,[3],95%
same,"Papp A→B at 120 min, 5 μM",MDR1 (P-gp),0.27 ×10⁻⁶ cm/s
same,"Papp B→A at 120 min, 5 μM",MDR1 (P-gp),21.2 ×10⁻⁶ cm/s
same,"efflux ratio at 120 min, 5 μM",MDR1,78
"CN1[C@H]2CC[C@@H]1[C@@H](F)[C@@H](N(c1ccc(-c3cc4oc(C(=O)N5CCC5)cc4cc3O)nn1)C1CC1)C2 (single isomer, unassigned) [Compound 92B]",EC50,[1]; [4],101 to 500 nM
same,EC50,[2]; [5],101 to 500 nM
same,MDCK-MDR1: % Recov A-B,[3],94%
same,MDCK-MDR1: % Recov B-A,[3],105%
same,"Papp A→B at 120 min, 5 μM",MDR1 (P-gp),1.16 ×10⁻⁶ cm/s
same,"Papp B→A at 120 min, 5 μM",MDR1 (P-gp),52.3 ×10⁻⁶ cm/s
same,"efflux ratio at 120 min, 5 μM",MDR1,45
"CN(c1ccc(-c2ccc(C(F)F)cc2O)nn1)[C@@H]1C[C@H]2CC[C@H](N2)[C@@H]1F (single isomer, unassigned) [Compound 120A]",mHTT protein EC50,[1]; [6],E (501 ≤ E ≤ 10.000)
same,SMN2 protein EC50,[2]; [7],E (501 ≤ E ≤ 10.000)
same,MDCK-MDR1: % Recov A-B,[3],76%
same,MDCK-MDR1: % Recov B-A,[3],74%
same,"Papp A→B at 120 min, 5 μM",MDR1 (P-gp),4.59 ×10⁻⁶ cm/s
same,"Papp B→A at 120 min, 5 μM",MDR1 (P-gp),34.8 ×10⁻⁶ cm/s
same,"efflux ratio at 120 min, 5 μM",MDR1,8
"CN(c1ccc(-c2cc3ccn(C)c(=O)c3s2)nn1)[C@H]1C[C@@H]2CC[C@@H](N2)[C@H]1F (single isomer, unassigned) [Compound 67B]",mHTT protein EC50,[1]; [4],E (501 ≤ E ≤ 10.000)
same,SMN2 protein EC50,[2]; [5],E (501 ≤ E ≤ 10.000)
same,MDCK-MDR1: % Recov A-B,[3],91%
same,MDCK-MDR1: % Recov B-A,[3],96%
same,"Papp A→B at 120 min, 5 μM",MDR1 (P-gp),0.47 ×10⁻⁶ cm/s
same,"Papp B→A at 120 min, 5 μM",MDR1 (P-gp),40.9 ×10⁻⁶ cm/s
same,"efflux ratio at 120 min, 5 μM",MDR1,86
"CN(c1ccc(-c2cc3ncn(CC(F)(F)F)c(=O)c3cc2O)nn1)[C@H]1C[C@@H]2CC(F)(F)[C@H](C1)N2C (single isomer, unassigned) [Compound 110B]",mHTT protein EC50,[1]; [6],E (501 ≤ E ≤ 10.000)
same,SMN2 protein EC50,[2]; [7],E (501 ≤ E ≤ 10.000)
same,MDCK-MDR1: % Recov A-B,[3],86%
same,MDCK-MDR1: % Recov B-A,[3],93%
same,"Papp A→B at 120 min, 5 μM",MDR1 (P-gp),11.7 ×10⁻⁶ cm/s
same,"Papp B→A at 120 min, 5 μM",MDR1 (P-gp),47.4 ×10⁻⁶ cm/s
same,"efflux ratio at 120 min, 5 μM",MDR1,4
"CN(c1ccc(-c2cc3ncn(CC(F)(F)F)c(=O)c3cc2O)nn1)[C@H]1C[C@@H]2CC(F)(F)[C@H](C1)N2 [Compound 59B, 7-(6-(((1R,3S,5S)-6,6-difluoro-8-azabicyclo[3.2.1]octan-3-yl)(methyl)amino)pyridazin-3-yl)-6-hydroxy-3-(2,2,2-trifluoroethyl)quinazolin-4(3H)-one]",mHTT protein EC50,[1]; [4],E (501 ≤ E ≤ 10.000)
same,SMN2 protein EC50,[2]; [5],E (501 ≤ E ≤ 10.000)
same,MDCK-MDR1: % Recov A-B,[3],107%
same,MDCK-MDR1: % Recov B-A,[3],101%
same,"Papp A→B at 120 min, 5 μM",MDR1 (P-gp),2.97 ×10⁻⁶ cm/s
same,"Papp B→A at 120 min, 5 μM",MDR1 (P-gp),84.2 ×10⁻⁶ cm/s
same,"efflux ratio at 120 min, 5 μM",MDR1,28
"CNC(=O)c1cc(O)c(-c2ccc(N(C)[C@H]3C[C@@H]4CC[C@H]([C@H]3F)N4C)nn2)cc1F (single isomer, unassigned) [Compound 96B]",mHTT protein EC50,[1]; [4],E (501 ≤ E ≤ 10.000)
same,SMN2 protein EC50,[2]; [5],E (501 ≤ E ≤ 10.000)
same,MDCK-MDR1: % Recov A-B,[3],92%
same,MDCK-MDR1: % Recov B-A,[3],98%
same,"Papp A→B at 120 min, 5 μM",MDR1 (P-gp),2.72 ×10⁻⁶ cm/s
same,"Papp B→A at 120 min, 5 μM",MDR1 (P-gp),55.2 ×10⁻⁶ cm/s
same,"efflux ratio at 120 min, 5 μM",MDR1,20
"CNC(=O)c1ccc(-c2ccc(N(C)[C@@H]3C[C@H]4CC[C@H](N4)[C@@H]3F)nn2)c(O)c1 (single isomer, unassigned) [Compound 77A]",mHTT protein EC50,[1]; [4],E (501 ≤ E ≤ 10.000)
same,EC50,[2]; [5],101 to 500 nM
same,MDCK-MDR1: % Recov A-B,[3],104%
same,MDCK-MDR1: % Recov B-A,[3],110%
same,"Papp A→B at 120 min, 5 μM",MDR1 (P-gp),0.29 ×10⁻⁶ cm/s
same,"Papp B→A at 120 min, 5 μM",MDR1 (P-gp),36.3 ×10⁻⁶ cm/s
same,"efflux ratio at 120 min, 5 μM",MDR1,124
"CN(c1ccc(-c2ccccc2O)nn1)[C@H]1C[C@@H]2CC[C@@H](N2)[C@H]1F (single isomer, unassigned) [Compound 119B]",mHTT protein EC50,[1]; [6],E (501 ≤ E ≤ 10.000)
same,SMN2 protein EC50,[2]; [7],E (501 ≤ E ≤ 10.000)
same,MDCK-MDR1: % Recov A-B,[3],93%
same,MDCK-MDR1: % Recov B-A,[3],95%
same,"Papp A→B at 120 min, 5 μM",MDR1 (P-gp),6.13 ×10⁻⁶ cm/s
same,"Papp B→A at 120 min, 5 μM",MDR1 (P-gp),58.2 ×10⁻⁶ cm/s
same,"efflux ratio at 120 min, 5 μM",MDR1,9
"CN(c1ccc(-c2ccc(C(F)F)cc2O)nn1)[C@H]1C[C@@H]2CC[C@@H](N2)[C@H]1F (single isomer, unassigned) [Compound 120B]",mHTT protein EC50,[1]; [6],E (501 ≤ E ≤ 10.000)
same,SMN2 protein EC50,[2]; [7],E (501 ≤ E ≤ 10.000)
same,MDCK-MDR1: % Recov A-B,[3],60%
same,MDCK-MDR1: % Recov B-A,[3],76%
same,"Papp A→B at 120 min, 5 μM",MDR1 (P-gp),5.84 ×10⁻⁶ cm/s
same,"Papp B→A at 120 min, 5 μM",MDR1 (P-gp),27.3 ×10⁻⁶ cm/s
same,"efflux ratio at 120 min, 5 μM",MDR1,5
